Patent publication US6599925B2 (Wyeth, priority 2001, dated 2003)
Where a name gives a salt, the structure may show the parent alone.

Assays:
human PAI-1 = human PAI-1 (Homo sapiens, UniProt P05121); assay: Assay for determining IC50 of inhibition of PAI-1 (Antibody Assay); assay type: binding; settings: footnote a: determined by the Antibody Assay; active PAI-1 bound to tPA-coated plate, pH 7.5
Description: Assay for Determining IC50 of Inhibition of PAI-1
This assay is based upon the non-SDS dissociable interaction between tPA and active PAI-1. Assay plates are initially coated with human tPA (10 μg/ml). Test compounds are dissolved in DMSO at 10 mM, then diluted with physiologic buffer (pH 7.5) to a final concentration of 1-50 μM. The test compounds are incubated with human PAI-1 (50 ng/ml) for 15 minutes at room temperature. The tPA-coated plate is washed with a solution of 0.05% Tween 20 and 0.1% BSA, then the plate is blocked with a solution of 3% BSA. An aliquot of the test compound/PAI-1 solution is then added to the tPA-coated plate, incubated at room temperature for 1 hour, and washed. Active PAI-1 bound to the plate is assessed by adding an aliquot of a 1:1000 dilution of the 33B8 monoclonal antibody against human PAI-1, and incubating the plate at room temperature for 1 hour (Molecular Innovations, Royal Oak, Mich.). The plate is again washed, and a solution of goat anti-mouse IgG-alkaline phosphatase conjugate is added at a 1:50,000 dilution in goat serum. The plate is incubated 30 minutes at room temperature, washed, and a solution of alkaline phosphatase substrate is added. The plate is incubated 45 minutes at room temperature, and color development is determined at OD405nm. The quantitation of active PAI-1 bound to tPA at varying concentrations of the test compound is used to determine the IC50. Results are analyzed using a logarithmic best-fit equation. The assay sensitivity is 5 ng/ml of human PAI-1 as determined from a standard curve ranging from 0-100 ng/ml.

Chain of human PAI-1 (P05121 24-402): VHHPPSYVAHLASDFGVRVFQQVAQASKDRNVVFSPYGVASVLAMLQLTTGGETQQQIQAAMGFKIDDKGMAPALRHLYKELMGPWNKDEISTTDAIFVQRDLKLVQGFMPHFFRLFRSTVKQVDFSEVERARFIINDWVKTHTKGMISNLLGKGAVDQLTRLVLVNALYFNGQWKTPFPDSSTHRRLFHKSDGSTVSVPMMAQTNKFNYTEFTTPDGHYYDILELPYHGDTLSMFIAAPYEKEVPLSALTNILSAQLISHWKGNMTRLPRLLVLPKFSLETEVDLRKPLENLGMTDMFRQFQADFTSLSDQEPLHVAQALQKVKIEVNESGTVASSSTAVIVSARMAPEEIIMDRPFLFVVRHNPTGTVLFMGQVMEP

melting point	IC50 (human PAI-1) [µM]	SMILES
142 to 143 °C	11	CCCCC(=O)c1c(-c2ccc3c(Cl)c(OCC(=O)O)ccc3c2)oc2ccccc12 [Example 24, 2-{[1-Chloro-6-(3-pentanoyl-1-benzofuran-2-yl)-2-naphthyl]oxy}acetic acid]
	8.2	CCCCC(=O)c1c(-c2ccc3c(-c4ccc(C(F)(F)F)cc4)c(OCC(=O)O)ccc3c2)oc2ccccc12 [Example 15, 2-({6-(3-Pentanoyl-1-benzofuran-2-yl)-1-[4-(trifluoromethyl)phenyl]-2-naphthyl}oxy) acetic acid, sodium salt]
176 to 177 °C	18.7	CC(C)CC(=O)c1c(-c2ccc3c(Br)c(OCc4nnn[nH]4)ccc3c2)oc2ccccc12 [Example 9, 1-{2-[5-Bromo-6-(1H-1,2,3,4-tetraazol-5-ylmethoxy)-2-naphthyl]-1-benzofuran-3-yl}-3-methyl-1-butanone]
207 to 209 °C	8.7	CC(C)(C)CC(=O)c1c(-c2ccc3cc(OCC(=O)O)ccc3c2)oc2ccccc12 [Example 6, 2-({6-[3-(3,3-Dimethylbutanoyl)-1-benzofuran-2-yl]-2-naphthyl}oxy)acetic acid]
162 to 164 °C	24.2	CCCCC(=O)c1c(-c2ccc3c(C)c(OCc4nnn[nH]4)ccc3c2)oc2ccccc12 [Example 20, 1-{2-[5-Methyl-6-(1H-1,2,3,4-tetraazol-5-ylmethoxy)-2-naphthyl]-1-benzofuran-3-yl}-1-pentanone]
186 to 187 °C	10.1	O=C(CC1CCCC1)c1c(-c2ccc3c(Br)c(OCc4nnn[nH]4)ccc3c2)oc2ccccc12 [Example 13, 1-{2-[5-Bromo-6-(1H-1,2,3,4-tetraazol-5-ylmethoxy)-2-naphthyl]-1-benzofuran-3-yl}-2-cyclopentyl-1-ethanone]
272 to 273 °C (dec.)	2.7	CCCCC(=O)c1c(-c2ccc3c(-c4ccccc4)c(OCC(=O)[O-])ccc3c2)oc2ccccc12.[Na+] [Example 14, 2-{[6-(3-Pentanoyl-1-benzofuran-2-yl)-1-phenyl-2-naphthyl]oxy}acetic acid, sodium salt]
159 to 161 °C	6.54	CCCCCc1c(-c2ccc3c(Br)c(OCC(=O)O)ccc3c2)oc2ccccc12 [Example 36, [1-Bromo-6-(3-pentyl-benzofuran-2-yl)-naphthalen-2-yloxy]-acetic acid]
144 to 145 °C	16.6	CCCCC(=O)c1c(-c2ccc3cc(OC(Cc4ccccc4)C(=O)O)ccc3c2)oc2ccccc12 (stereo not shown) [Example 4, 2-{[6-(3-Pentanoyl-1-benzofuran-2-yl)-2-naphthyl]oxy}-3-phenylpropanoic acid]
160 to 164 °C	10	CCCCC(=O)c1c(-c2ccc3c(-c4ccccc4)c(OCc4nnn[nH]4)ccc3c2)oc2ccccc12 [Example 16, 1-{2-[5-Phenyl-6-(1H1,2,3,4-tetraazol-5-ylmethoxy)-2-naphthyl]-1-benzofuran-3-yl}-1-pentanone]
168 to 169 °C	14	CCCCC(=O)c1c(-c2ccc3c(Cl)c(OCc4nnn[nH]4)ccc3c2)oc2ccccc12 [Example 25, 1-{2-[5-Chloro-6-(1H-1,2,3,4-tetraazol-5-ylmethoxy)-2-naphthyl]-1-benzofuran-3-yl}-1-pentanone]
221 to 222 °C	12.4	CCCCC(=O)c1c(-c2ccc3c(C)c(OC(Cc4ccccc4)C(=O)[O-])ccc3c2)oc2ccccc12.[Na+] (stereo not shown) [Example 23, 2-{[1-Methyl-6-(3-pentanoyl-1-benzofuran-2-yl)-2-naphthyl]oxy}-3-phenylpropanoic acid, sodium salt]
178 to 180 °C	8.17	CCCCCc1c(-c2ccc3cc(OCc4nnn[nH]4)ccc3c2)oc2ccccc12 [Example 34, 5-[6-(3-Pentyl-benzofuran-2-yl)-naphthalen-2-yloxymethyl]-1H-tetrazole]
150 to 152 °C	2.7	O=C(O)COc1ccc2cc(-c3oc4ccccc4c3C(=O)CC3CCCC3)ccc2c1Br [Example 17, 2-({1-Bromo-6-[3-(2-cyclopentylacetyl)-1-benzofuran-2-yl]-2-naphthyl}oxy)acetic acid]
202 to 203 °C	3.85	O=C(O)COc1ccc2cc(-c3oc4ccccc4c3-c3ccccc3)ccc2c1-c1ccccc1 [Example 29, {[1-Phenyl-6-(3-phenyl-1-benzofuran-2-yl)-2-naphthyl]oxy}acetic acid]
153 to 155 °C	13.3	CCCCC(=O)c1c(-c2ccc3c(C)c(OCC(=O)O)ccc3c2)oc2ccccc12 [Example 22, 2-{[1-Methyl-6-(3-pentanoyl-1-benzofuran-2-yl)-2-naphthyl]oxy}acetic acid]
